Assay type in all cases: biochemical
Experiment [1] deals with Recombinant human inducible NOS (iNOS) (Homo sapiens (Human), UniProt P35228). Briefly: Human iNOS enzyme assay (Protocol 1 or Protocol 2, radiometric). Here is the method:
The human iNOS assay was carried by either one of the two protocols as described herein:
Recombinant human inducible NOS (iNOS) was produced in Baculovirus-infected Sf9 cells (ALEXIS). In a radiometric method, NO synthase activity was determined by measuring the conversion of [^3H]L-arginine to [^3H]L-citrulline. To measure iNOS, 10 μL of enzyme was added to 100 μL of 100 mM HEPES, pH=7.4, containing 1 mM CaCl2, 1 mM EDTA, 1 mM dithiothreitol, 1 μM FMN, 1 μM FAD, 10 μM tetrahydrobiopterin, 120 μM NADPH, and 100 nM CaM.
To measure enzyme inhibition, a 15 μL solution of a test substance was added to the enzyme assay solution, followed by a pre-incubation time of 15 min at RT. The reaction was initiated by addition of 20 μL L-arginine containing 0.25 μCi of [^3H] arginine/mL and 24 μM L-arginine. The total volume of the reaction mixture was 150 μL in every well. The reactions were carried out at 37° C. for 45 minutes, The reaction was stopped by adding 20 μL of ice-cold buffer containing 100 mM HEPES, 3 mM EGTA, 3 mM EDTA, pH=5.5. [^3H]L-citrulline was separated by DOWEX (ion-exchange resin DOWEX 50 W×8-400, SIGMA) and the DOWEX was removed by spinning at 12,000 g for 10 min in the centrifuge. An aliquot (70 μL) of the supernatant was added to 100 μL of scintillation fluid, and the samples were counted in a liquid scintillation counter (1450 Microbeta Jet, Wallac). Specific NOS activity was reported as the difference between the activity recovered from the test solution and that observed in a control sample containing 240 mM of the inhibitor L-NMMA. All assays were performed at least in duplicate. Standard deviations are 10% or less.
Primary stock solutions of each test compound were prepared in distilled water on the day of study to obtain a final concentration of 6 mM. For the determination of IC50 values, 11 test compound concentrations were prepared as 3-fold serial dilutions. Test compounds were tested in the iNOS assay at a concentration of 1000 μM to 0.0169 μM. The vehicle of the test compound or inhibitor, distilled water, was used as blank control. For non-specific activity, 100 μM L-NMMA was run in parallel as a control.
All incubations were performed in duplicate
The reaction mixture was prepared on ice by the addition of the following components to the appropriate well of a 1.0 mL 96-well polypropylene plate:
10 μL of test compound, reference inhibitor, or control (vehicle or L-NMMA) solution;
25 μL of Reaction Buffer (50 mM Tris-HCl, 6 μM BH4, 2 μM FMN, 2 μM FAD);
5 μL of 10 mM NADPH solution;
5 μL of 1 μM Calmodulin; and
The reaction mixture was pre-incubated at room temperature for 15 minutes. Following this pre-incubation, the reaction was initiated by the addition of 5 μL of the substrate L-arginine (1 μCi of [^3H]-L-Arginine+30 μM of unlabeled L-Arginine) to the reaction mixture. The total reaction volume was 60 μL. The assay plate containing the reaction mixtures was sealed and incubated at 37° C. for 30 minutes. At the end of this incubation period, 400 μL of ice-cold Stop Buffer (the EDTA in the Stop Buffer chelates all of the available calcium) was added to each well to stop the reaction. 100 μL of equilibrated resin pH 5.5 was added to each of the assay wells. The reaction samples were vortexed and transferred to spin cups, after-which they were centrifuged at 13,000 rpm for 30 sec. The spin cups were removed from the holder and […] (containing the unbound L-citrulline) were added to the appropriate wells of a 96-well liquid scintillation plate. 175 μL of scintillation fluid were also added to each well. The plate was sealed, and radioactivity was quantitated using a Microbeta liquid scintillation counter.
Data were analyzed using a Sigmoidal dose-response (variable slope) curve to determine the IC50 value of the test compound. Y=Bottom+(Top−Bottom)/(1+10^((Log IC50−X)*Hill Slope))

For experiment [2], the target named is Nitric oxide synthase (neuronal, human recombinant) nNOS (Homo sapiens (Human), UniProt P29475). Briefly: Human nNOS enzyme assay ([3H]-L-arginine to L-citrulline conversion). The note with it: for Selectivity eNOS/nNOS: ratio of human eNOS IC50 to human nNOS IC50; for IC50: recombinant human nNOS. Here is the method: (§1) nNOS (Human), eNOS (Human) and iNOS (Human) Enzyme Assay
(§2) Primary stock solutions of test compounds at a concentration of 6 mM were prepared from the 2 to 5 mg powder. The primary stock solutions of each test compound were prepared freshly in distilled water on the day of study to obtain a final concentration of 6 mM. For determination of IC50 values, 12 test compound concentrations were prepared as 3-fold serial dilutions. Concentration range of test compound utilized for nNOS were 0.001 to 300 μM and for eNOS were 0.003 to 1000 μM. The vehicle of the test compound or inhibitor was used as blank control. For non-specific activity, 100 μM L-NMMA was used. Runs using the IC50 concentration of L-NAME were done in parallel as controls.
(§3) All incubations are performed in duplicate
(§4) The reaction mixture was prepared on ice by adding the following components with a micropipette to a polypropylene microcentrifuge tube: • 10 μL of test compound, inhibitor or control (vehicle or L-NMMA) solution; • 25 μL of Reaction Buffer {25 mM Tris-HCl, 0.6 μM BH4, 0.2 μM FMN, 0.2 μM FAD}; • 5 μL of 10 mM NADPH solution {1 mM} (freshly prepared in 10 mM Tris-HCl (pH 7.4); • 5 μL of 6 mM CaCl2 {600 W}; • 5 μL of 1 mM Calmodulin {100 W}; and • 5 μL of 0.02 μg/μL nNOS or 0.12 μg/μL eNOS.
(§5) The above reaction mixture was pre-incubated at room temperature for 15 mins.
(§6) The reaction was started by the addition of the substrate (in 5 μL containing 1 μCi of [^3H]-L-Arginine+2.5 μM of unlabeled L-Arginine) to the reaction mixture. Total reaction volume is 60 μL.
(§7) The reaction was mixed using a vortex mixer and incubate the above reaction mixture at 37° C. in an incubator for 30 minutes.
(§8) To stop the reaction, 400 μL of ice-cold Stop Buffer was added at the end of the incubation period.
(§9) The reaction was then mixed using a vortex mixer, and the reaction samples were transferred to spin cups, which were centrifuged using a microcentrifuge, at 13,000 rpm for 30 sec. at room temperature.
(§10) The spin cups were removed from the holder, 450 μL of eluate (containing the unbound L-citrulline) were transferred to scintillation vials. 3 mL of scintillation fluid were added and the radioactivity was quantified in a liquid scintillation counter.
(§11) Data was analyzed using a Sigmoidal dose-response (variable slope) curve to determine the IC50 value of the test compound. Y=Bottom+(Top−Bottom)/(1+10^((Log IC50−X)*Hill Slope))

Experiment [3] addresses Nitric oxide synthase (endothelial, human recombinant) eNOS (Homo sapiens (Human), UniProt P29474). Briefly: Human eNOS enzyme assay ([3H]-L-arginine to L-citrulline conversion). Here is the method:
as §1, §2, §3, §4, §5, §6, §7, §8, §9, §10, §11

The results in this text go back to patent US8618286B2, “Benzoxazines, benzothiazines, and related compounds having NOS inhibitory activity” (NeurAxon, Inc., priority 2008, dated 2013).

Structures can show the parent of a compound that is named as a salt.

As usually defined, the IC50 is the concentration at which inhibition is half-maximal. For `CN(C)CCN1CCSc2cc(NC(=N)c3ccco3)ccc21` [Compound 19, N-(4-(2-(dimethylamino)ethyl)-3,4-dihydro-2H-benzo[b][1,4]thiazin-7-yl)furan-2-carboximidamide], the results for the IC50 in experiment [1], in experiment [2] and in experiment [3] were 136 µM, 0.14 µM and 94.7 µM, respectively. Moreover, the “Selectivity eNOS/nNOS” value in experiment [2] is given as 676.

In the case of `CN(CCN1CCSc2cc(NC(=N)c3cccs3)ccc21)CC(=O)O` [Compound 17, 2-(methyl(2-(7-(thiophene-2-carboximidamido)-2H-benzo[b][1,4]thiazin-4(3H)-yl)ethyl)amino)acetic acid dihydrochloride], the IC50 in experiment [1] stood at 241 µM; in experiment [2], 1.16 µM; in experiment [3], 10.9 µM. For the same molecule, the “Selectivity eNOS/nNOS” value in experiment [2] was determined as 9.3.

Turning to `CN(C)CCCN1CCSc2cc(NC(=N)c3cccs3)ccc21` [Compound 22, N-(4-(3-(Dimethylamino)propyl)-3,4-dihydro-2H-benzo[b][1,4]thiazin-7-yl)thiophene-2-carboximidamide], the IC50 is 115 µM in experiment [1], 0.014 µM in experiment [2] and 12.1 µM in experiment [3]. In experiment [2], the “Selectivity eNOS/nNOS” value amounted to 864.

With `CNCCN1CCSc2ccc(NC(=N)c3cccs3)cc21` [Compound 28, N-(4-(2-(methylamino)ethyl)-3,4-dihydro-2H-benzo[b][1,4]thiazin-6-yl)thiophene-2-carboximidamide], the IC50 in experiment [1] was 348 µM; in experiment [2], 0.08 µM; in experiment [3], 8.58 µM. In addition, in experiment [2], the “Selectivity eNOS/nNOS” value is 107.2.

In the case of `N=C(Nc1ccc2c(c1)N(CCNCCO)CCS2)c1cccs1` [Compound 26, N-(4-(2-(2-hydroxyethylamino)ethyl)-3,4-dihydro-2H-benzo[b][1,4]thiazin-6-yl)thiophene-2-carboximidamide], the values for the IC50 in experiment [1], in experiment [2] and in experiment [3] were 60.1 µM, 0.15 µM and 8.48 µM, respectively. For the same molecule, the “Selectivity eNOS/nNOS” value in experiment [2] is 56.5.

Turning to `N=C(Nc1ccc2c(c1)OCCN2CCN1CCCC1)c1cccs1` [Compound 4, N-(4-(2-(pyrrolidin-1-yl)ethyl)-3,4-dihydro-2H-benzo[b][1,4]oxazin-7-yl)thiophene-2-carboximidamide], the results for the IC50 in experiment [1], in experiment [2] and in experiment [3] were 2.7 µM, 0.41 µM and 25.1 µM, respectively. In addition, in experiment [2], the “Selectivity eNOS/nNOS” value came to 61.2.

For `CCNCCN1CCOc2cc(NC(=N)c3cccs3)ccc21` [Compound 7, N-(4-(2-(ethylamino)ethyl)-3,4-dihydro-2H-benzo[b][1,4]oxazin-7-yl)thiophene-2-carboximidamide dihydrochloride], the IC50 in experiment [1] was more than 100 µM; in experiment [2], 1.06 µM; in experiment [3], 10.4 µM. In addition, the “Selectivity eNOS/nNOS” value in experiment [2] is given as 9.8.

`N=C(Nc1ccc2c(c1)SCCN2CCN1CCCC1)c1cccs1` [Compound 11, N-(4-(2-(pyrrolidin-1-yl)ethyl)-3,4-dihydro-2H-benzo[b][1,4]thiazin-7-yl)thiophene-2-carboximidamide]: the IC50 in experiment [1] was found to be 117 µM; in experiment [2], 0.24 µM; in experiment [3] it was 24.4 µM. Moreover, the “Selectivity eNOS/nNOS” value in experiment [2] is given as 101.6.

For `N=C(Nc1ccc2c(c1)OCC(=O)N2CCN1CCCC1)c1cccs1` [Compound 3, N-(3-oxo-4-(2-(pyrrolidin-1-yl)ethyl)-3,4-dihydro-2H-benzo[b][1,4]oxazin-7-yl)thiophene-2-carboximidamide], the IC50 in experiment [1] was 1.5 µM; in experiment [2] it was 0.85 µM; in experiment [3] it was 13.8 µM. Further, the “Selectivity eNOS/nNOS” value in experiment [2] is 16.2.

Consider `N=C(Nc1ccc2c(c1)SCCN2CCCN1CCCC1)c1cccs1` [Compound 21, N-(4-(3-(pyrrolidin-1-yl)propyl)-3,4-dihydro-2H-benzo[b][1,4]thiazin-7-yl)thiophene-2-carboximidamide], for which the IC50 in experiment [1] is 49.6 µM; in experiment [2], 0.14 µM; in experiment [3], 10 µM. In experiment [2], the “Selectivity eNOS/nNOS” value worked out at 71.4.

`CCNCCN1CCSc2ccc(NC(=N)c3cccs3)cc21` [Compound 24, N-(4-(2-(ethylamino)ethyl)-3,4-dihydro-2H-benzo[b][1,4]thiazin-6-yl)thiophene-2-carboximidamide]: the half-maximal inhibitory concentration (IC50) in experiment [1] turned out to be 82.3 µM; in experiment [2], 0.05 µM; in experiment [3], 4.45 µM. The “Selectivity eNOS/nNOS” value in experiment [2] worked out at 89.

In the case of `CNCCCN1CCSc2cc(NC(=N)c3cccs3)ccc21` [Compound 23, N-(4-(3-(methylamino)propyl)-3,4-dihydro-2H-benzo[b][1,4]thiazin-7-yl)thiophene-2-carboximidamide], the IC50 in experiment [1] is 172 µM; in experiment [2] it was 0.028 µM; in experiment [3] it was 18.6 µM. In experiment [2], the “Selectivity eNOS/nNOS” value was 664.

Consider `N=C(Nc1ccc2c(c1)SCCN2CCN1CCC[C@H]1C(=O)O)c1cccs1` [Compound 18, (S)-1-(2-(7-(Thiophene-2-carboximidamido)-2H-benzo[b][1,4]thiazin-4(3H)-yl)ethyl)pyrrolidine-2-carboxylic acid dihydrochloride], for which the IC50 in experiment [1] is 341 µM; in experiment [2] it was 0.66 µM; in experiment [3], 12.6 µM. Besides, the “Selectivity eNOS/nNOS” value in experiment [2] came to 19.
